The subject of one experiment is IL-8. Put plainly: HCPt-induced IL-8 secretion in three-dimensional nasal epithelial cultures from an allergic donor, ELISA. Type of experiment: cell-based, human. To be noted: 30 μl of 20 mM HCPt, 16 hours exposure; peak of IL-8 secretion at Day 4. (In general: In an ELISA, binding on a coated surface is turned into a signal by an enzyme label.)
Experiment [1] deals with human nasal epithelial cells. Put plainly: Cilia beating frequency (CBF) in three-dimensional nasal epithelial cultures from an allergic donor. To be noted: Day 4, versus control. In kind it is cell-based.

Data on one compound can be found in patent US11672821B2, “Methods for treating respiratory conditions using ionic aqueous polysaccharide compositions” (Gerolymatos International S.A., priority 2013, dated 2023).

As to `[Cl][Pt-2]([Cl])([Cl])([Cl])([Cl])[Cl].[NH4+].[NH4+]` [HCPt, Ammonium hexachloroplatinate], the “IL-8 secretion with HCPt alone” value with IL-8 is listed as “efficiently induced inflammation”. The “cilia beating frequency (CBF) with HCPt alone” value in experiment [1] is on record as “reduced CBF versus control”.
